What was measured:
human MER = biological target: T1, human MER (Homo sapiens, UniProt Q12866); experiment: HTRF KinEASE-TK biochemical potency assay, MER; settings: 1 nM MER, 700 μM ATP, 800 nM TK Substrate-biotin
T1 construct: purchased Invitrogen
T1 sequence (Q12866 21-999): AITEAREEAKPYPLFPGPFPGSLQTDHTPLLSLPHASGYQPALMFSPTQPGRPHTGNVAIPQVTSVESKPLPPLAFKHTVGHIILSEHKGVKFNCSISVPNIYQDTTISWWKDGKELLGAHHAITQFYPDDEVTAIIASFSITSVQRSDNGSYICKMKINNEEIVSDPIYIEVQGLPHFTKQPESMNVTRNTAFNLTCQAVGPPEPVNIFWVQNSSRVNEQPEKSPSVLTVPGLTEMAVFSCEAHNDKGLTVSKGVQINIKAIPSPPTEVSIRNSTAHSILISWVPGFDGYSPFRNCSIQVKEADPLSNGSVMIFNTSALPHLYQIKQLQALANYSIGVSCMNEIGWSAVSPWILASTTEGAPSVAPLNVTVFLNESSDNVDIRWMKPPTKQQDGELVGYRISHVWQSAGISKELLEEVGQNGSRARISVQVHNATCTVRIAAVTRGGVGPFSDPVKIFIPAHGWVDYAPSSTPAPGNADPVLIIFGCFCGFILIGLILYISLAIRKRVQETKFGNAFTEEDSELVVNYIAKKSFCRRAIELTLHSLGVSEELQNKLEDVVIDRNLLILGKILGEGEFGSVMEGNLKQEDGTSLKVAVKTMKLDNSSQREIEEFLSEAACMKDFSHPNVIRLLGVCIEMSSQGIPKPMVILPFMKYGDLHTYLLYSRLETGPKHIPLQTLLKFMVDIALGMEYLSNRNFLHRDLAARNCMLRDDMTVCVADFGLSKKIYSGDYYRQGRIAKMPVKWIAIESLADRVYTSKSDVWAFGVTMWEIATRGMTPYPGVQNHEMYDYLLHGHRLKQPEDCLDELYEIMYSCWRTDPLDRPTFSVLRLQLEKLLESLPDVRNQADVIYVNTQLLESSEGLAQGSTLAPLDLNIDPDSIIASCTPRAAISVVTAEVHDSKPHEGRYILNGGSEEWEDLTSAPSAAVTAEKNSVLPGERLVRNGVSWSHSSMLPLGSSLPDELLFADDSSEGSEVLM
Method in brief: (§1)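 Final conditions: 5 nM AXL, 1 nM TYRO3 or MER, 50 mM HEPES pH 7.4, 10 mM MgCl2, 0.01% BSA, 1 mM DTT, 700 μM ATP. Reaction ran 2 h at RT after 1 h preincubation with compound; HTRF signal read at 665/620 nm.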

human TYRO3 = biological target: T2, human TYRO3 (Homo sapiens, UniProt Q06418); experiment: HTRF KinEASE-TK biochemical potency assay, TYRO3; settings: 1 nM TYRO3, 700 μM ATP, 800 nM TK Substrate-biotin
T2 construct: purchased Invitrogen
T2 sequence (Q06418 41-890): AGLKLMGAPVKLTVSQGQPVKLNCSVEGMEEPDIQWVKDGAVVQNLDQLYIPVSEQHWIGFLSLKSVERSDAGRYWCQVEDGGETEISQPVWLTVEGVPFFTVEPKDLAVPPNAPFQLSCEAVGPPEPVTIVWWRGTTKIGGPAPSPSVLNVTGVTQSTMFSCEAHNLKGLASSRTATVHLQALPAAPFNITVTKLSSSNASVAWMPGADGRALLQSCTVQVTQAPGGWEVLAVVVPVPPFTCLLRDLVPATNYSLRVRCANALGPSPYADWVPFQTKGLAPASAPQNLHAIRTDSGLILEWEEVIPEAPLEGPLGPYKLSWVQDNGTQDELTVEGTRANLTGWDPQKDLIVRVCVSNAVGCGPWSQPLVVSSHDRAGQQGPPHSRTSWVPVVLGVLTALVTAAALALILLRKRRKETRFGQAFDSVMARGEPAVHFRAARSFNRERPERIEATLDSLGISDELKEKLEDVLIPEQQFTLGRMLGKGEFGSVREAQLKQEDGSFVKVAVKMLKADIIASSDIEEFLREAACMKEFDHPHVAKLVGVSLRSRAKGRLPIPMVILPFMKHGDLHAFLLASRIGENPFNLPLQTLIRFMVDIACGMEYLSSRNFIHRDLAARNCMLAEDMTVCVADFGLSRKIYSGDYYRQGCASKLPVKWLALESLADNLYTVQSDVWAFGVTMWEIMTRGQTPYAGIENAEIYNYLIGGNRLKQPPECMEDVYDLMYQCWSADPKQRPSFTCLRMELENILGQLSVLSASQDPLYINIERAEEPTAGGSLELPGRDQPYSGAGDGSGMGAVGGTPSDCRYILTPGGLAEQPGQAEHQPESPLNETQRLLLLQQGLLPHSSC
Method in brief: as §1

Row | Compound | IC50 (human MER) [nM] | IC50 (human TYRO3) [nM]
1 | C[C@@H]1CCCN1C1(C)CCc2ccc(-c3cnc4[nH]nc(-c5ccc(S(N)(=O)=O)c(Cl)c5)c4c3)cc2CC1 (stereo partly drawn) [Example 93, 2-Chloro-4-(5-(7-methyl-7-((R)-2-methylpyrrolidin-1-yl)-6,7,8,9-tetrahydro-5H-benzo[7]annulen-2-yl)-1H-pyrazolo[3,4-b]pyridin-3-yl)benzenesulfonamide] | < 100 | < 100
2 | C[C@@H]1CCCN1C1CCc2ccc(-c3cnc4[nH]nc(-c5ccc(C6(O)COC6)c(Cl)c5)c4c3)cc2CC1 (stereo partly drawn) [Example 64, 3-[2-Chloro-4-(5-{7-[(2R)-2-methylpyrrolidin-1-yl]-6,7,8,9-tetrahydro-5H-benzo[7]annulen-2-yl}-1H-pyrazolo[3,4-b]pyridin-3-yl)phenyl]oxetan-3-ol] | > 1000 | 100 to 1000
3 | NC(=O)c1ccc(-c2n[nH]c3ncc(-c4ccc5c(c4)CCC(N4CCCC4)CC5)cc23)cc1F (stereo not shown) [Example 81, 2-Fluoro-4-(5-(7-(pyrrolidin-1-yl)-6,7,8,9-tetrahydro-5H-benzo[7]annulen-2-yl)-1H-pyrazolo[3,4-b]pyridin-3-yl)benzamide] | 100 to 1000 | < 100
4 | Cc1cc(-c2n[nH]c3ncc(-c4ccc5c(c4)CCC(N4CCCC4)CC5)cc23)cc(F)c1C(N)=O (stereo not shown) [Example 79, 2-Fluoro-6-methyl-4-(5-(7-(pyrrolidin-1-yl)-6,7,8,9-tetrahydro-5H-benzo[7]annulen-2-yl)-1H-pyrazolo[3,4-b]pyridin-3-yl)benzamide] | 100 to 1000 | < 100
5 | NS(=O)(=O)c1ccc(-c2n[nH]c3ncc(-c4ccc5c(c4)CCN(C4CCCC4)CC5)cc23)cc1Cl [Example 92, 2-Chloro-4-(5-(3-cyclopentyl-2,3,4,5-tetrahydro-1H-benzo[d]azepin-7-yl)-1H-pyrazolo[3,4-b]pyridin-3-yl)benzenesulfonamide] | 100 to 1000 | 100 to 1000
6 | COc1cc(-c2n[nH]c3ncc(-c4ccc5c(c4)CCC(C)(N4CCC[C@H]4C)CC5)cc23)ccc1S(N)(=O)=O (stereo partly drawn) [Example 87, 2-Methoxy-4-(5-(7-methyl-7-((R)-2-methylpyrrolidin-1-yl)-6,7,8,9-tetrahydro-5H-benzo[7]annulen-2-yl)-1H-pyrazolo[3,4-b]pyridin-3-yl)benzenesulfonamide] | 100 to 1000 | 100 to 1000
7 | CCC1(N2CCC[C@H]2CO)CCc2ccc(-c3cnc4[nH]nc(-c5ccc(C(N)=O)c(Cl)c5)c4c3)cc2CC1 (stereo partly drawn) [Example 75, 2-Chloro-4-(5-{7-ethyl-7-[(2S)-2-(hydroxymethyl)pyrrolidin-1-yl]-6,7,8,9-tetrahydro-5H-benzo[7]annulen-2-yl}-1H-pyrazolo[3,4-b]pyridin-3-yl)benzamide] | < 100 | < 100
8 | COC1CCN(C(=O)c2ccc(-c3n[nH]c4ncc(-c5ccc6c(c5)CCC(C)(N5CCC[C@H]5C)CC6)cc34)cc2Cl)CC1 (stereo partly drawn) [Example 67, 1-[2-Chloro-4-(5-{7-methyl-7-[(2R)-2-methylpyrrolidin-1-yl]-6,7,8,9-tetrahydro-5H-benzo[7]annulen-2-yl}-1H-pyrazolo[3,4-b]pyridin-3-yl)benzoyl]-4-methoxypiperidine] | 100 to 1000 | < 100
9 | CC1(N2CCC[C@@H]2CO)CCc2ccc(-c3cnc4[nH]nc(-c5ccc(S(=O)(=O)C6CC6)cc5)c4c3)cc2CC1 (stereo partly drawn) [Example 3, [(2R)-1-(2-{3-[4-(Cyclopropanesulfonyl)phenyl]-1H-pyrazolo[3,4-b]pyridin-5-yl}-7-methyl-6,7,8,9-tetrahydro-5H-benzo[7]annulen-7-yl)pyrrolidin-2-yl]methanol] | 100 to 1000 | < 100
10 | C[C@@H]1CCCN1C1CCc2ccc(-c3cnc4[nH]nc(-c5cnc(C(C)(C)O)c(Cl)c5)c4c3)cc2CC1 (stereo partly drawn) [Example 65, 2-[3-Chloro-5-(5-{7-[(2R)-2-methylpyrrolidin-1-yl]-6,7,8,9-tetrahydro-5H-benzo[7]annulen-2-yl}-1H-pyrazolo[3,4-b]pyridin-3-yl)pyridin-2-yl]propan-2-ol] | 100 to 1000 | 100 to 1000
11 | NC(=O)c1ccc(-c2n[nH]c3ncc(-c4ccc5c(c4)CCC(N4CCCC4)CC5)cc23)cc1Cl (stereo not shown) [Example 77, 2-Chloro-4-(5-(7-(pyrrolidin-1-yl)-6,7,8,9-tetrahydro-5H-benzo[7]annulen-2-yl)-1H-pyrazolo[3,4-b]pyridin-3-yl)benzamide] | < 100 | < 100
12 | NS(=O)(=O)c1ccc(-c2n[nH]c3ncc(-c4ccc5c(c4)CC[C@@H](N4CCCC4)CC5)cc23)cc1Cl [Example 91, (S)-2-Chloro-4-(5-(7-(pyrrolidin-1-yl)-6,7,8,9-tetrahydro-5H-benzo[7]annulen-2-yl)-1H-pyrazolo[3,4-b]pyridin-3-yl)benzenesulfonamide] | 100 to 1000 | < 100
13 | COCCNC(=O)c1ccc(-c2n[nH]c3ncc(-c4ccc5c(c4)CCC(C)(N4CCC[C@H]4C)CC5)cc23)cc1 (stereo partly drawn) [Example 72, N-(2-Methoxyethyl)-4-(5-{7-methyl-7-[(2R)-2-methylpyrrolidin-1-yl]-6,7,8,9-tetrahydro-5H-benzo[7]annulen-2-yl}-1H-pyrazolo[3,4-b]pyridin-3-yl)benzamide] | > 1000 | 100 to 1000
14 | CCC1(N2CCC[C@H]2C)CCc2ccc(-c3cnc4[nH]nc(-c5ccc(C(N)=O)c(Cl)c5)c4c3)cc2CC1 (stereo partly drawn) [Example 73, 2-Chloro-4-(5-{7-ethyl-7-[(2R)-2-methylpyrrolidin-1-yl]-6,7,8,9-tetrahydro-5H-benzo[7]annulen-2-yl}-1H-pyrazolo[3,4-b]pyridin-3-yl)benzamide] | < 100 | < 100
15 | C[C@@H]1CCCN1C1(C)CCc2ccc(-c3cnc4[nH]nc(-c5ccc(C(=O)NC6CC6)cc5)c4c3)cc2CC1 (stereo partly drawn) [Example 69, N-Cyclopropyl-4-(5-{7-methyl-7-[(2R)-2-methylpyrrolidin-1-yl]-6,7,8,9-tetrahydro-5H-benzo[7]annulen-2-yl}-1H-pyrazolo[3,4-b]pyridin-3-yl)benzamide] | 100 to 1000 | 100 to 1000
16 | COC1CCN(C(=O)c2ccc(-c3n[nH]c4ncc(-c5ccc6c(c5)CC[C@@H](N5CCCC5)CC6)cc34)cc2Cl)CC1 [Example 66, (S)-(2-Chloro-4-(5-(7-(pyrrolidin-1-yl)-6,7,8,9-tetrahydro-5H-benzo[7]annulen-2-yl)-1H-pyrazolo[3,4-b]pyridin-3-yl)phenyl)(4-methoxypiperidin-1-yl)methanone] | 100 to 1000 | < 100
17 | Cc1cc2c(cc1-c1cnc3[nH]nc(-c4ccc(C(C)(C)O)c(Cl)c4)c3c1)CCC(N1CCC[C@H]1C)CC2 (stereo partly drawn) [Example 90, 2-[2-Chloro-4-(5-{3-methyl-7-[(2R)-2-methylpyrrolidin-1-yl]-6,7,8,9-tetrahydro-5H-benzo[7]annulen-2-yl}-1H-pyrazolo[3,4-b]pyridin-3-yl)phenyl]propan-2-ol] | > 1000 | > 1000

Source: patent US20240246967A1, “AXL COMPOUNDS” (ARCUS BIOSCIENCES, INC., priority 2021, published 2024)
